How the values were obtained:
[1] = target: Tyk2 (Homo sapiens (Human), UniProt P29597); test: Biochemical Tyk2 kinase assay (LanthaScreen)
Outline: (§1)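 GST-JAK + GFP-STAT1 peptide, HEPES pH 7.5/MgCl2/EGTA/Brij-35 buffer; cpd preincubation 1 h RT; ATP start, 1 h RT; stop with 10 mM EDTA + 2 nM Tb-anti-pSTAT1; TR-FRET 520/495. 4-parameter IC50 → pKi (Cheng-Prusoff).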

[2] = Colon and plasma mouse pharmacokinetics; type: in vivo; settings: mouse, colon tissue / plasma; male Balb/c mice, 10 mg/kg PO; ratio of the colon AUC to the plasma AUC
Method: Assay 5: Colon and Plasma Mouse Pharmacokinetics
To 6 male Balb/c mice was administered 10 mg/kg of compound in 1% HPMC+0.1% Tween-80 by PO administration. At 0.5, 2 and 6 hours after dose administration, animals were anesthetized, and terminal blood samples were collected by cardiac puncture, followed by collection of colon contents and colon tissue.
Blood samples were collected into K2EDTA and stored on wet ice until processed to plasma by centrifugation (12000 rpm at 4° C.). Plasma samples were transferred to cluster tubes and placed on dry ice prior to freezer storage. The colon contents from each animal were collected at each terminal blood collection time point. The colon tissues were flushed with saline and patted dry. The colon and colon content tissues were homogenized using sterile water containing 0.1% formic acid 9:1 (water:tissue, v/w). The homogenized tissues and colon contents were transferred to cluster tubes and placed on dry ice prior to freezer storage. All samples were analyzed using LC/MS/MS against analytical standards.
The composite pharmacokinetic parameters of the compounds were determined by non-compartmental analysis using Phoenix WinNonlin Version 6 (Certara, St. Louis, Mo.) and using mean values from 2 animals/time point. For plasma concentrations below the quantification limit (BQL), the lowest concentration measurable or the BLOQ (below limit of quantification) was used.
A colon to plasma ratio was determined as the ratio of the colon AUC to the plasma AUC.

[3] = test system: IL-2 stimulated STAT5 phosphorylation in Tall-1 human T cell line (JAK3); test: Cellular JAK3 potency assay: inhibition of IL-2 stimulated pSTAT5 in Tall-1 T cells; type: cell-based; settings: IL-2 stimulated pSTAT5, Tall-1 T cells
Outline: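 AlphaLISA SureFire Ultra measures STAT5 Tyr694/699 phosphorylation in lysed Tall-1 human T cells. Cells were exposed to compound for 1 h at 37 °C before a 30 min IL-2 challenge (300 ng/ml final). Values are pIC50 means with standard deviation from signal-versus-concentration curves.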

[4] = target: JAK2 (Homo sapiens (Human), UniProt O60674); test: Biochemical JAK2 kinase assay (LanthaScreen)
Outline: as §1

[5] = test system: Caco-2 cell monolayers; test: Caco-2 permeation assay; type: in vitro ADME; settings: 5 μM, A-B direction, with Verapamil (25 μM)
Outline: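 Passive A-to-B permeability with P-gp inhibited by verapamil (25 μM); compound at 5 μM, n=2. Both compartments sampled at t0 and t120 and quantified by LC-MS/MS, giving apparent permeability in cm/sec from flux, area and concentration.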

[6] = target: JAK3 (Homo sapiens (Human), UniProt P52333); test: Biochemical JAK3 kinase assay (LanthaScreen); settings: for JAK3 (pKi)-JAK1 (pKi): selectivity JAK3 over JAK1, difference of pKi
Outline: as §1

[7] = target: JAK1 (Homo sapiens (Human), UniProt P23458); test: Biochemical JAK1 kinase assay (LanthaScreen)
Outline: as §1

JAK2, sequence (O60674 whole entry): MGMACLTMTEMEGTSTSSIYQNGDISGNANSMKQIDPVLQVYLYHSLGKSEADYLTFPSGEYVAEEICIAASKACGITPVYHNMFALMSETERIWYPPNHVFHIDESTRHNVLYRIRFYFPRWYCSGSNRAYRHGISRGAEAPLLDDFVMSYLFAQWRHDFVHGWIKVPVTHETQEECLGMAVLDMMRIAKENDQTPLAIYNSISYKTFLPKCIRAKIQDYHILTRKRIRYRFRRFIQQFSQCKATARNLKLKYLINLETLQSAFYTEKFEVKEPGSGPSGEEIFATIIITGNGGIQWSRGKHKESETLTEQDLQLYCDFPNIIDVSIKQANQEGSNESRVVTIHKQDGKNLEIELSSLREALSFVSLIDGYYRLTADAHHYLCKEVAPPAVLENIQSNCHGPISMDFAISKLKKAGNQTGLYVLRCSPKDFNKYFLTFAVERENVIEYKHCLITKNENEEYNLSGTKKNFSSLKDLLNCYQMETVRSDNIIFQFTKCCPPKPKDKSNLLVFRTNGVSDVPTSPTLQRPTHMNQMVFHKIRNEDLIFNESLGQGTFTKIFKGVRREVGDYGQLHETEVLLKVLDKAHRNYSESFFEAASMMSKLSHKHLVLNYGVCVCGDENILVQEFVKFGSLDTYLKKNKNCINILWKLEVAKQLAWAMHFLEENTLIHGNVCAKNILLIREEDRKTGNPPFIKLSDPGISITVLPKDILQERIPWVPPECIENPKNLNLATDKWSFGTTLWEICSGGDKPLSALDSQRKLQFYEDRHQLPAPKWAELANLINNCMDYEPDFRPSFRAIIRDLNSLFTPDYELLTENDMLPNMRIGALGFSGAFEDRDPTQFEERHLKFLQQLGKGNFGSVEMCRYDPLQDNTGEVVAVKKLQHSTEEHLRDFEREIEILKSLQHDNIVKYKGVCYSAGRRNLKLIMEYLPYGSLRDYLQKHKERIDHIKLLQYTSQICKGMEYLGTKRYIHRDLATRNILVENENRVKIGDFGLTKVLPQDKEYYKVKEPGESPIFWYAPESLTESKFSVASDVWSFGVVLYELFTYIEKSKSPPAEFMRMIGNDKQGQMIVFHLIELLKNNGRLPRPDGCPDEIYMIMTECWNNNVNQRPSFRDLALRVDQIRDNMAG
JAK3, sequence (P52333 whole entry): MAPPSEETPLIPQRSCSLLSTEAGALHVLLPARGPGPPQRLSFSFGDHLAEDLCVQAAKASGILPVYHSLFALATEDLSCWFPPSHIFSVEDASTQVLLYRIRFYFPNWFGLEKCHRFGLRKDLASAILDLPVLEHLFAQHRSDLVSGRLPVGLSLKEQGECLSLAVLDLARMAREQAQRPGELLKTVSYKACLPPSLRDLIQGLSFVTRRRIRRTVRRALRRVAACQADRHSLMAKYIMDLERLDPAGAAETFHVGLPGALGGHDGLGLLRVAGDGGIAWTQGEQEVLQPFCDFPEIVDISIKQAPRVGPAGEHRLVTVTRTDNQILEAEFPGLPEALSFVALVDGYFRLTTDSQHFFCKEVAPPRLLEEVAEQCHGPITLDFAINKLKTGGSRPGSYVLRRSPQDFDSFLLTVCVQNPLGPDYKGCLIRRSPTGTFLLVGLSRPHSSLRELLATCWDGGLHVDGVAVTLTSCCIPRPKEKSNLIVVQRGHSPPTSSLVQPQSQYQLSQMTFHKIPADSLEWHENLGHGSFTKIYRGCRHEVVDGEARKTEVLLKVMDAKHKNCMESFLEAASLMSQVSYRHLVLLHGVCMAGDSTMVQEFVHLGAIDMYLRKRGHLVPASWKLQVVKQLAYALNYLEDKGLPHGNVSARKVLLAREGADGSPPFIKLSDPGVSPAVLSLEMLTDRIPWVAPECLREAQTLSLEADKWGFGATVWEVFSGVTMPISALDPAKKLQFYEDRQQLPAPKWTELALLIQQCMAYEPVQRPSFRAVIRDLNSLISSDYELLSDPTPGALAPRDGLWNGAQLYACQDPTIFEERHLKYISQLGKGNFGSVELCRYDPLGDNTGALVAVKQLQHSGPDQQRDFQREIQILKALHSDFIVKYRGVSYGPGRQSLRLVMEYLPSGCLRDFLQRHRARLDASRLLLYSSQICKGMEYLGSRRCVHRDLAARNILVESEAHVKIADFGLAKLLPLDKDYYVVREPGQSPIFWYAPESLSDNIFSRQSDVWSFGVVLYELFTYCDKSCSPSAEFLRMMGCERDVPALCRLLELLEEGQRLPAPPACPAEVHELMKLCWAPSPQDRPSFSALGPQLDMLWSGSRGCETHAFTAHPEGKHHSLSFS
JAK1, sequence (P23458 whole entry): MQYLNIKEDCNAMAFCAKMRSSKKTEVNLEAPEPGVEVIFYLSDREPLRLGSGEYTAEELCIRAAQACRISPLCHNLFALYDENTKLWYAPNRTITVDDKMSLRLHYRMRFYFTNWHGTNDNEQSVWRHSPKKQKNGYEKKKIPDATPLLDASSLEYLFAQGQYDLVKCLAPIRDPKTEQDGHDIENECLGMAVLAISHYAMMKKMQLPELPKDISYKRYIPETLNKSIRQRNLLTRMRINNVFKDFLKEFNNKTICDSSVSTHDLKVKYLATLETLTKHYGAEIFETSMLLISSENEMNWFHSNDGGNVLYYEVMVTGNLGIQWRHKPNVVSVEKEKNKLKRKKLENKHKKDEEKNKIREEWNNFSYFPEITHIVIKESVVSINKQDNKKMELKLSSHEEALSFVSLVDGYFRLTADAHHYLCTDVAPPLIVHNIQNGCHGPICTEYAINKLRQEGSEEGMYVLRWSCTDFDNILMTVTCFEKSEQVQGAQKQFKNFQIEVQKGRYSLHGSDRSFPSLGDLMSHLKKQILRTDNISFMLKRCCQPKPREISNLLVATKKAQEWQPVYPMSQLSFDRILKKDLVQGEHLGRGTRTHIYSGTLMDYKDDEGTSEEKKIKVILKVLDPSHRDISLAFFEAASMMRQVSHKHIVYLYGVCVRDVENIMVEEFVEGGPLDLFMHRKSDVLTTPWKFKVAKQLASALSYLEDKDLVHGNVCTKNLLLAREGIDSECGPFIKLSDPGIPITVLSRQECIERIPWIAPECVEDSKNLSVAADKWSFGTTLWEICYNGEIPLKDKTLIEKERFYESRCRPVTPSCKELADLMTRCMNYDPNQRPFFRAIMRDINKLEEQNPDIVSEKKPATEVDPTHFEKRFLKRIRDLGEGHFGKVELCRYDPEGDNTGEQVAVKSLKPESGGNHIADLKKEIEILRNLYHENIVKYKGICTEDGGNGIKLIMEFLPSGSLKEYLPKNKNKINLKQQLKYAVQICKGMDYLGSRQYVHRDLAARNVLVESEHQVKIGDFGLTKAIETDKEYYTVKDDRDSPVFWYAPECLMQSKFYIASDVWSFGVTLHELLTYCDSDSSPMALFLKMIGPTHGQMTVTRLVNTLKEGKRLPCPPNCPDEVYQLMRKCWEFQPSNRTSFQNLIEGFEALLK
Tyk2, sequence (P29597 whole entry): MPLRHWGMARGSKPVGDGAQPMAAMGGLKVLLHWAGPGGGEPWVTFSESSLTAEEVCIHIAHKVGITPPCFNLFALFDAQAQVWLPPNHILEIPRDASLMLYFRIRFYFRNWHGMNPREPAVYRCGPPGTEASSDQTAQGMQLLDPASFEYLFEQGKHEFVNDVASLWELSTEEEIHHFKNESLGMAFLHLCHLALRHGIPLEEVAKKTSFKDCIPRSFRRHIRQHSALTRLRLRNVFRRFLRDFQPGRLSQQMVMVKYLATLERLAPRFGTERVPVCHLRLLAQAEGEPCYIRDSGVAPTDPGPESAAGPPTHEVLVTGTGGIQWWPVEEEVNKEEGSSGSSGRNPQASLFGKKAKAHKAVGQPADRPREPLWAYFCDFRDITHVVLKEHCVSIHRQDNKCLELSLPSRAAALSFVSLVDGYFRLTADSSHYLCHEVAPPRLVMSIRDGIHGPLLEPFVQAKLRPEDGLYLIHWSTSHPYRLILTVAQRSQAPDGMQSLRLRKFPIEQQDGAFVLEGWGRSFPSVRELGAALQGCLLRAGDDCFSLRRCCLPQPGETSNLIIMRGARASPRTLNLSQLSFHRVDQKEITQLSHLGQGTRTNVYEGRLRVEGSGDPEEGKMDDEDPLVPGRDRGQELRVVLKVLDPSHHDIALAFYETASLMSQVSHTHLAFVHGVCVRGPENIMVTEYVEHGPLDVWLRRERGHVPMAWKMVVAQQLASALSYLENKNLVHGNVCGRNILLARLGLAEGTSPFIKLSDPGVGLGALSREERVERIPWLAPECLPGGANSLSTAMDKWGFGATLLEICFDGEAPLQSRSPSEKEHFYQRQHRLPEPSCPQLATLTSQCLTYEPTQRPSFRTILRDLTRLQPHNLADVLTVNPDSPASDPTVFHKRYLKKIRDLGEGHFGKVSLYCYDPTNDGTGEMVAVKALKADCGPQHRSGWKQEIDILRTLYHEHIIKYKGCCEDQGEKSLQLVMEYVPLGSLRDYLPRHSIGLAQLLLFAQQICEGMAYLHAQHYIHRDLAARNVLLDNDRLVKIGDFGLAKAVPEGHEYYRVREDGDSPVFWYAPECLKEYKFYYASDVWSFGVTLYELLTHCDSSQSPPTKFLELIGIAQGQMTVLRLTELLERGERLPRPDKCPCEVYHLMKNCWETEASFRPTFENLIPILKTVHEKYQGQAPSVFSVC

Row | Structure (SMILES) | Tyk 2 (pKi) [1] | Kp [2] | Tall-1 (pIC50) [3] | JAK 2 (pKi) [4] | Caco Kp [5] | JAK 3 (pKi) [6] | JAK3 (pKi)-JAK1 (pKi) [6] | JAK 1 (pKi) [7]
1 | C=CC(=O)N1CCN(CCn2c(=O)ccc3cnc(Nc4ccc(N5CCN(C(=O)N(C)C)CC5)cc4)nc32)[C@@H](C)C1 [Example 174] | E (E represents a pKi value of 7 or below (Ki of 100 nM or above)) | > 14 | B (B represents a pC50 value between 6.7 (included) and 7.5 (IC50 between 200 nM and 32 nM)) | E (E represents a pKi value of 7 or below (Ki of 100 nM or above)) | B (B represents a value between 5×10^−6 and 10×10^−6 cm/sec) | B (B represents pKi value between 9 and 10 (Ki between 1 nM and 0.1 nM)) | A (A represents a value of 3 or above) | E (E represents a pKi value of 7 or below (Ki of 100 nM or above))
2 | C=CC(=O)N1CC(CCn2c(=O)ccc3cnc(Nc4cccc(CN5CCOCC5)c4)nc32)C1 [Example 27] | E (E represents a pKi value of 7 or below (Ki of 100 nM or above)) | > 100 | B (B represents a pC50 value between 6.7 (included) and 7.5 (IC50 between 200 nM and 32 nM)) | E (E represents a pKi value of 7 or below (Ki of 100 nM or above)) | C (C represents a value between 10×10^−6 and 30×10^−6 cm/sec) | B (B represents pKi value between 9 and 10 (Ki between 1 nM and 0.1 nM)) | A (A represents a value of 3 or above) | E (E represents a pKi value of 7 or below (Ki of 100 nM or above))
3 | C=CC(=O)N1CCN(CCn2c(=O)ccc3cnc(Nc4ccc(N5CCN(C(C)=O)CC5)cc4)nc32)CC1 [Example 79] | E (E represents a pKi value of 7 or below (Ki of 100 nM or above)) | > 1000 | B (B represents a pC50 value between 6.7 (included) and 7.5 (IC50 between 200 nM and 32 nM)) | E (E represents a pKi value of 7 or below (Ki of 100 nM or above)) | A (A represents a value below 5×10^−6 cm/sec) | B (B represents pKi value between 9 and 10 (Ki between 1 nM and 0.1 nM)) | A (A represents a value of 3 or above) | E (E represents a pKi value of 7 or below (Ki of 100 nM or above))
4 | C=CC(=O)N1CC(CCn2c(=O)ccc3cnc(Nc4cccc(CN5CCN(C(=O)CSC)CC5)c4)nc32)C1 [Example 134] | E (E represents a pKi value of 7 or below (Ki of 100 nM or above)) | > 100 | B (B represents a pC50 value between 6.7 (included) and 7.5 (IC50 between 200 nM and 32 nM)) | E (E represents a pKi value of 7 or below (Ki of 100 nM or above)) | A (A represents a value below 5×10^−6 cm/sec) | A (A represents a pKi value≥10 (Ki≤0.1 nM)) | A (A represents a value of 3 or above) | E (E represents a pKi value of 7 or below (Ki of 100 nM or above))
5 | C=CC(=O)N1CC(CCn2c(=O)ccc3cnc(Nc4cccc(CN5CCN(C(C)=O)CC5)c4)nc32)C1 [Example 133] | E (E represents a pKi value of 7 or below (Ki of 100 nM or above)) | > 100 | B (B represents a pC50 value between 6.7 (included) and 7.5 (IC50 between 200 nM and 32 nM)) | E (E represents a pKi value of 7 or below (Ki of 100 nM or above)) | A (A represents a value below 5×10^−6 cm/sec) | A (A represents a pKi value≥10 (Ki≤0.1 nM)) | A (A represents a value of 3 or above) | E (E represents a pKi value of 7 or below (Ki of 100 nM or above))
6 | C=CC(=O)N1CC(CCn2c(=O)ccc3cnc(Nc4ccc(N5CCN(C(=O)N(C)C)CC5)cc4)nc32)C1 [Example 92] | E (E represents a pKi value of 7 or below (Ki of 100 nM or above)) | > 100 | B (B represents a pC50 value between 6.7 (included) and 7.5 (IC50 between 200 nM and 32 nM)) | E (E represents a pKi value of 7 or below (Ki of 100 nM or above)) | A (A represents a value below 5×10^−6 cm/sec) | B (B represents pKi value between 9 and 10 (Ki between 1 nM and 0.1 nM)) | A (A represents a value of 3 or above) | E (E represents a pKi value of 7 or below (Ki of 100 nM or above))
7 | C=CC(=O)N1CC(CCn2c(=O)ccc3cnc(Nc4ccc(N5CCN(C)CC5)nc4)nc32)C1 [Example 8, 8-(2-(1-acryloylazetidin-3-yl)ethyl)-2-((6-(4-methylpiperazin-1-yl)pyridin-3-yl)amino)pyrido[2,3-d]pyrimidin-7(8H)-one] | E (E represents a pKi value of 7 or below (Ki of 100 nM or above)) | > 100 | B (B represents a pC50 value between 6.7 (included) and 7.5 (IC50 between 200 nM and 32 nM)) | E (E represents a pKi value of 7 or below (Ki of 100 nM or above)) | A (A represents a value below 5×10^−6 cm/sec) | B (B represents pKi value between 9 and 10 (Ki between 1 nM and 0.1 nM)) | A (A represents a value of 3 or above) | E (E represents a pKi value of 7 or below (Ki of 100 nM or above))
8 | C=CC(=O)N1CC(CCn2c(=O)ccc3cnc(Nc4cccc(CN5CCN(S(C)(=O)=O)CC5)c4)nc32)C1 [Example 6, 8-(2-(1-acryloylazetidin-3-yl)ethyl)-2-((3-((4-(methylsulfonyl)piperazin-1-yl)methyl)phenyl)amino)pyrido[2,3-d]pyrimidin-7(8H)-one] | E (E represents a pKi value of 7 or below (Ki of 100 nM or above)) | > 100 | B (B represents a pC50 value between 6.7 (included) and 7.5 (IC50 between 200 nM and 32 nM)) | E (E represents a pKi value of 7 or below (Ki of 100 nM or above)) | A (A represents a value below 5×10^−6 cm/sec) | B (B represents pKi value between 9 and 10 (Ki between 1 nM and 0.1 nM)) | A (A represents a value of 3 or above) | E (E represents a pKi value of 7 or below (Ki of 100 nM or above))
9 | C=CC(=O)N1CC(CCn2c(=O)ccc3cnc(Nc4cccc(CN5CCN(C)CC5)c4)nc32)C1 [Example 52] | E (E represents a pKi value of 7 or below (Ki of 100 nM or above)) | > 100 | B (B represents a pC50 value between 6.7 (included) and 7.5 (IC50 between 200 nM and 32 nM)) | E (E represents a pKi value of 7 or below (Ki of 100 nM or above)) | A (A represents a value below 5×10^−6 cm/sec) | B (B represents pKi value between 9 and 10 (Ki between 1 nM and 0.1 nM)) | A (A represents a value of 3 or above) | E (E represents a pKi value of 7 or below (Ki of 100 nM or above))
10 | C=CC(=O)N1CC(CCn2c(=O)ccc3cnc(Nc4cccc(CN5CCN(C(=O)CCSC)CC5)c4)nc32)C1 [Example 110] | E (E represents a pKi value of 7 or below (Ki of 100 nM or above)) | > 1000 | A (A represents a pIC50 value≥7.5 (IC50≤32 nM)) | E (E represents a pKi value of 7 or below (Ki of 100 nM or above)) | B (B represents a value between 5×10^−6 and 10×10^−6 cm/sec) | A (A represents a pKi value≥10 (Ki≤0.1 nM)) | A (A represents a value of 3 or above) | E (E represents a pKi value of 7 or below (Ki of 100 nM or above))
11 | C=CC(=O)N1CC(CCn2c(=O)ccc3cnc(Nc4ccc(C5=CCN(C)CC5)cc4)nc32)C1 [Example 74] | E (E represents a pKi value of 7 or below (Ki of 100 nM or above)) | > 100 | B (B represents a pC50 value between 6.7 (included) and 7.5 (IC50 between 200 nM and 32 nM)) | E (E represents a pKi value of 7 or below (Ki of 100 nM or above)) | A (A represents a value below 5×10^−6 cm/sec) | B (B represents pKi value between 9 and 10 (Ki between 1 nM and 0.1 nM)) | A (A represents a value of 3 or above) | E (E represents a pKi value of 7 or below (Ki of 100 nM or above))

Reference: US11697648B2, “Fused pyrimidine pyridinone compounds as JAK inhibitors” (THERAVANCE BIOPHARMA R&D IP, LLC, priority 2019, dated 2023)
